# Data reported in patent US11957684B2, “Treatment of heavy menstrual bleeding associated with uterine fibroids” (Sumitomo Pharma Switzerland GmbH, priority 2016, dated 2024).
# Several values for one entry are separate records, joined by “and”; a condition that tells them apart may be missing. Identical values can stand only once. Like-named read-outs stand apart in the source and are kept apart here.
# System: endometriosis-associated pain
# Format: in vivo, human
# Procedure: Subjects assessed and recorded their own quality of life (QOL) using the EHP-30 once a month during the study visit. As used in the examples, the VAS score was evaluated using a 100 mm scale. For pain intensity, the scale was anchored by “no pain” (score of 0) and “pain as bad as you can imagine” (score of 100). […] The above items were evaluated using a patient diary that was distributed by the sponsor. Subjects filled out the patient diary every day during the treatment period or until early termination. If taking prohibited analgesics, subjects recorded this fact in the patient diary along with the accompanying pain symptoms before use of analgesics. As used in the examples, pain during menstruation and pelvic pain unrelated to menstruation were evaluated using scores on the M-B&B and B&B. The M-B&B scores were recorded by subjects on the patient diary supplied by the sponsor. Subjects filled out the patient diary every day during the treatment period or until early termination. If taking prohibited analgesics, subjects recorded this fact in the patient diary along with the accompanying pain symptoms before use of analgesics. The investigator or subinvestigator assessed each patient's pain through interviews and filled out a B&B once a month. The items that were assessed are shown below. The M-B&B score included: dysmenorrhea (severe, moderate, mild, no pain, or no menstruation); pelvic pain (severe, moderate, mild, or no pain); deep dyspareunia (severe, moderate, mild, no pain, or no intercourse). The B&B score included: dysmenorrhea (severe, moderate, mild, none, or not applicable); dyspareunia (severe, moderate, mild, none, or not applicable); pelvic pain (severe, moderate, mild, or none); pelvic tenderness (severe, moderate, mild, or none); and induration (severe, moderate, mild, or none). As used in the examples, the EHP-30 score was obtained by subjects assessing and recording their own QOL using the EHP-30 questionnaire.
smiles,measurement,setting,value
"CONC(=O)Nc1ccc(-c2sc3c(c2CN(C)C)c(=O)n(-c2ccc(OC)nn2)c(=O)n3Cc2c(F)cccc2F)cc1 [Compound 1, N-(4-(1-(2,6-difluorobenzyl)-5-((dimethylamino)methyl)-3-(6-methoxy-3-pyridazinyl)-2,4-dioxo-1,2,3,4-tetrahydrothieno[2,3-d]pyrimidin-6-yl)phenyl)-N′-methoxyurea]","change from baseline in mean VAS, dysmenorrhea","10 mg, Day 1-28",−10.657±17.0824 mm
same,"change from baseline in mean VAS, dyspareunia","10 mg, Day 1-28",1.642±10.6212 mm
same,"change from baseline in mean VAS, pelvic pain","10 mg, Day 1-28",−4.606±7.1304 mm
same,"mean VAS score, dysmenorrhea","10 mg, Day 1-28",17.556±17.0427 mm
same,"mean VAS score, dyspareunia","10 mg, Day 1-28",9.608±15.4027 mm
same,"mean VAS score, pelvic pain","10 mg, Day 1-28",9.988±10.3249 mm
same,"change from baseline in mean VAS, dysmenorrhea","10 mg, Day 57-84",−14.747±16.8648 mm
same,"change from baseline in mean VAS, dyspareunia","10 mg, Day 57-84",−1.033±12.2047 mm
same,"change from baseline in mean VAS, pelvic pain","10 mg, Day 57-84",−6.282±9.1659 mm
same,"mean VAS score, dysmenorrhea","10 mg, Day 57-84",13.568±15.5954 mm
same,"mean VAS score, dyspareunia","10 mg, Day 57-84",10.110±18.5404 mm
same,"mean VAS score, pelvic pain","10 mg, Day 57-84",8.400±10.1329 mm
same,"change from baseline in mean VAS, dysmenorrhea","10 mg, Day 141-168",−15.191±17.6754 mm
same,"change from baseline in mean VAS, dyspareunia","10 mg, Day 141-168",−4.124±10.5641 mm
same,"change from baseline in mean VAS, pelvic pain","10 mg, Day 141-168",−7.872±11.2457 mm
same,"mean VAS score, dysmenorrhea","10 mg, Day 141-168",11.758±15.4431 mm
same,"mean VAS score, dyspareunia","10 mg, Day 141-168",5.550±11.1157 mm
same,"mean VAS score, pelvic pain","10 mg, Day 141-168",6.861±9.2099 mm
same,"change from baseline in EHP-30, control & powerlessness","10 mg, Week 24",−13.97±17.502
same,"change from baseline in EHP-30, emotional well-being","10 mg, Week 24",−8.38±15.918
same,"change from baseline in EHP-30, pain","10 mg, Week 24",−16.98±20.286
same,"change from baseline in EHP-30, social support","10 mg, Week 24",−7.52±10.840
same,"change from baseline in mean B&B score, dysmenorrhea","10 mg, Week 24",−1.0±0.87
same,"change from baseline in mean B&B score, dyspareunia","10 mg, Week 24",−0.3±0.67
same,"change from baseline in mean B&B score, pelvic pain","10 mg, Week 24",−0.8±0.79
same,"change from baseline in mean B&B score, pelvic tenderness","10 mg, Week 24",−0.7±0.83
same,"subjects without pain in B&B score, dysmenorrhea","10 mg, Week 24",27.8%
same,"subjects without pain in B&B score, dyspareunia","10 mg, Week 24",63.9%
same,"subjects without pain in B&B score, pelvic pain","10 mg, Week 24",30.4%
same,"subjects without pain in B&B score, pelvic tenderness","10 mg, Week 24",35.4%
same,"change from baseline in maximum M-B&B score, dysmenorrhea","10 mg, end of treatment",−0.7±1.01
same,"change from baseline in maximum M-B&B score, dyspareunia","10 mg, end of treatment",−0.2±0.69
same,"change from baseline in maximum M-B&B score, pelvic pain","10 mg, end of treatment",−0.7±0.94
same,"change from baseline in maximum VAS, dysmenorrhea","10 mg, end of treatment",−26.4±27.37 mm
same,"change from baseline in maximum VAS, dyspareunia","10 mg, end of treatment",−4.2±16.30 mm
same,"change from baseline in maximum VAS, pelvic pain","10 mg, end of treatment",−24.0±27.54 mm
same,"change from baseline in mean M-B&B score, deep dyspareunia","10 mg, end of treatment",−0.171±0.4683
same,"change from baseline in mean M-B&B score, dysmenorrhea","10 mg, end of treatment",−0.509±0.6675
same,"change from baseline in mean M-B&B score, pelvic pain","10 mg, end of treatment",−0.260±0.3624
same,"change from baseline in mean VAS, dysmenorrhea","10 mg, end of treatment",−15.356±18.0506 mm
same,"change from baseline in mean VAS, dyspareunia","10 mg, end of treatment",−3.454±10.8509 mm
same,"change from baseline in mean VAS, pelvic pain","10 mg, end of treatment",−6.849 mm and −6.849±10.5616 mm
same,change from baseline in mean score of amount of bleeding (0 to 5),"10 mg, end of treatment",−0.529±1.2185
same,change from baseline in proportion of days with usage of pain killer,"10 mg, end of treatment",−6.32±9.817%
same,"change in proportion of days without pain (M-B&B), deep dyspareunia","10 mg, end of treatment",8.32±35.972%
same,"change in proportion of days without pain (M-B&B), dysmenorrhea","10 mg, end of treatment",29.55±42.700%
same,"change in proportion of days without pain (M-B&B), pelvic pain","10 mg, end of treatment",17.18±26.101%
same,"change in proportion of days without pain (VAS), dysmenorrhea","10 mg, end of treatment",29.28±43.277%
same,"change in proportion of days without pain (VAS), dyspareunia","10 mg, end of treatment",9.72±38.401%
same,"change in proportion of days without pain (VAS), pelvic pain","10 mg, end of treatment",17.90±24.924%
same,"mean VAS score, dyspareunia","10 mg, end of treatment",6.218±10.6280 mm
same,"mean VAS score, pelvic pain","10 mg, end of treatment",7.746±9.0900 mm
same,subjects who achieved amenorrhea,"10 mg, end of treatment",22.3%
same,"subjects without pain in M-B&B score, dysmenorrhea","10 mg, end of treatment",27.2%
same,"subjects without pain in M-B&B score, dyspareunia","10 mg, end of treatment",56.0%
same,"subjects without pain in M-B&B score, pelvic pain","10 mg, end of treatment",24.3%
same,"subjects without pain in VAS score, dysmenorrhea","10 mg, end of treatment",27.2%
same,"subjects without pain in VAS score, dyspareunia","10 mg, end of treatment",48.0%
same,"subjects without pain in VAS score, pelvic pain","10 mg, end of treatment",6.8% and 7%
same,"change from baseline in mean VAS, dysmenorrhea","20 mg, Day 1-28",−9.158±16.6375 mm
same,"change from baseline in mean VAS, pelvic pain","20 mg, Day 1-28",−3.962±6.6751 mm
same,"mean VAS score, dysmenorrhea","20 mg, Day 1-28",18.545±19.2141 mm
same,"mean VAS score, dyspareunia","20 mg, Day 1-28",10.809±15.5738 mm
same,"mean VAS score, pelvic pain","20 mg, Day 1-28",11.627±14.7324 mm
same,"change from baseline in mean VAS, dysmenorrhea","20 mg, Day 57-84",−20.689±21.4387 mm
same,"change from baseline in mean VAS, dyspareunia","20 mg, Day 57-84",−0.191±10.6032 mm
same,"change from baseline in mean VAS, pelvic pain","20 mg, Day 57-84",−8.547±13.8568 mm
same,"mean VAS score, dysmenorrhea","20 mg, Day 57-84",6.626±13.5146 mm
same,"mean VAS score, dyspareunia","20 mg, Day 57-84",9.229±16.6530 mm
same,"mean VAS score, pelvic pain","20 mg, Day 57-84",6.675±10.8072 mm
same,"change from baseline in mean VAS, dysmenorrhea","20 mg, Day 141-168",−19.860±19.1617 mm
same,"change from baseline in mean VAS, dyspareunia","20 mg, Day 141-168",−4.012±12.5050 mm
same,"change from baseline in mean VAS, pelvic pain","20 mg, Day 141-168",−8.678±10.6479 mm
same,"mean VAS score, dysmenorrhea","20 mg, Day 141-168",6.132±13.2012 mm
same,"mean VAS score, dyspareunia","20 mg, Day 141-168",3.806±8.9781 mm
same,"mean VAS score, pelvic pain","20 mg, Day 141-168",5.486±9.1562 mm
same,"change from baseline in EHP-30, Self-image","20 mg, Week 24",−10.59±15.256
same,"change from baseline in EHP-30, control & powerlessness","20 mg, Week 24",−20.04±21.880
same,"change from baseline in EHP-30, emotional well-being","20 mg, Week 24",−15.37±17.858
same,"change from baseline in EHP-30, pain","20 mg, Week 24",−20.58±19.650
same,"change from baseline in EHP-30, social support","20 mg, Week 24",−13.44±17.055
same,"change from baseline in mean B&B score, dysmenorrhea","20 mg, Week 24",−1.5±0.94
same,"change from baseline in mean B&B score, dyspareunia","20 mg, Week 24",−0.4±0.70
same,"change from baseline in mean B&B score, pelvic pain","20 mg, Week 24",−0.9±0.85
same,"change from baseline in mean B&B score, pelvic tenderness","20 mg, Week 24",−0.8±0.79
same,"subjects without pain in B&B score, dysmenorrhea","20 mg, Week 24",64.9%
same,"subjects without pain in B&B score, dyspareunia","20 mg, Week 24",53.6%
same,"subjects without pain in B&B score, pelvic pain","20 mg, Week 24",39.2%
same,"subjects without pain in B&B score, pelvic tenderness","20 mg, Week 24",37.8%
same,"change from baseline in maximum M-B&B score, dysmenorrhea","20 mg, end of treatment",−1.4±1.12
same,"change from baseline in maximum M-B&B score, dyspareunia","20 mg, end of treatment",−0.3±0.59
same,"change from baseline in maximum M-B&B score, pelvic pain","20 mg, end of treatment",−0.7±0.79
same,"change from baseline in maximum VAS, dyspareunia","20 mg, end of treatment",−7.0±15.29 mm
